The results in this text go back to patent publication US9199947B2, “Biaryl-propionic acid derivatives and their use as pharmaceuticals” (SANOFI, priority 2013, dated 2015).

pIC50: −log10 of the molar value.

Sequence of Recombinant human cathepsin A (P10619 29-326): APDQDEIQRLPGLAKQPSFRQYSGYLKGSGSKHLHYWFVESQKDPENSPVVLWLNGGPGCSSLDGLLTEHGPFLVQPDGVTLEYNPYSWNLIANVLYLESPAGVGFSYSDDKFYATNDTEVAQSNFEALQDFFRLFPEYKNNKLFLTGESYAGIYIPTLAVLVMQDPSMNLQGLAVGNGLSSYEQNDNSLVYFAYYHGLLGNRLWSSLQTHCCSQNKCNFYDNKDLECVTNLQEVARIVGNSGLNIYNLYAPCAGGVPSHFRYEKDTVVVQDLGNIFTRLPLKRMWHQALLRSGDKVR
Sequence of Recombinant human cathepsin A (P10619 327-480): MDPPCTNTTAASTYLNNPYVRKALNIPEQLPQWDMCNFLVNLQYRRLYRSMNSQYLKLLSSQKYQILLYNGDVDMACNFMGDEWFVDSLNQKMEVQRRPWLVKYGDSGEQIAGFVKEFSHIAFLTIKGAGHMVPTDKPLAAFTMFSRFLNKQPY

For the first test, the target named is Recombinant human cathepsin A (Homo sapiens (Human), UniProt P10619). As to the kind of experiment: Cathepsin A inhibitory activity (Bodipy FL-labeled bradykinin substrate, microfluidic capillary electrophoresis). The settings on record: Cathepsin A inhibitory activity, read-out: CATHA IC50. The class given is biochemical. As to the method:
Pharmacological Tests a) Cathepsin a Inhibitory Activity
Recombinant human cathepsin A (residues 29-480, with a C-terminal 10-His tag; R&D Systems, #1049-SE) was proteolytically activated with recombinant human cathepsin L (R&D Systems, #952-CY). Briefly, cathepsin A was incubated at 10 μg/ml with cathepsin L at 1 μg/ml in activation buffer (25 mM 2-(morpholin-4-yl)-ethanesulfonic acid (MES), pH 6.0, containing 5 mM dithiothreitol (DTT)) for 15 min at 37° C.
The activated cathepsin A was diluted in assay buffer (25 mM MES, pH 5.5, containing 5 mM DTT) and mixed with the test compound (dissolved in assay buffer containing (v/v) 3% DMSO) or, in the control experiments, with the vehicle in a multiple assay plate. After incubation for 15 min at room temperature, as substrate then bradykinin carrying an N-terminal® Bodipy FL (4,4-difluoro-5,7-dimethyl-4-bora-3a,4a-diaza-s-indacene-3-propionyl) label (JPT Peptide Technologies GmbH; dissolved in assay buffer) was added to the mixture. The final concentration of cathepsin A was 833 ng/ml and the final concentration of labeled bradykinin 2 μM. After incubation for 15 min at room temperature the reaction was stopped by the addition of stop buffer (130 mM 2-(4-(2-hydroxy-ethyl)-piperazin-1-yl)-ethanesulfonic acid, pH 7.4, containing (v/v) 0.013%° Triton X-100, 0.13% Coating Reagent 3 (Caliper Life Sciences), 6.5% DMSO and 20 μM ebelactone B (Sigma, #E0886)).
Uncleaved substrate and product were then separated by a microfluidic capillary electrophoresis on a LabChip® 3000 Drug Discovery System (12-Sipper-Chip; Caliper Life Sciences) and quantified by determination of the respective peak areas. Substrate turnover was calculated by dividing product peak area by the sum of substrate and product peak areas, and the enzyme activity and the inhibitory effect of the test compound thus quantified.
As a reminder, the pIC50 is the IC50 on a negative log10 scale, so that one unit is a factor of ten. As to `Cc1nnc(C(CC(=O)O)c2cccc(-c3cccnc3)c2)o1` (centres unmarked) [compound 147], the pIC50 is 5.17.
For `N#Cc1ccccc1-c1cc(F)cc(C(CC(=O)O)c2ncco2)c1` (centres unmarked) [compound 137], the pIC50 is 5.69.
Take `COc1ccc(-c2ccccc2)cc1C(CC(=O)O)c1nccs1` (centres unmarked) [compound 168]: the pIC50 is 5.31.
On to `Cc1nnc(C(CC(=O)O)c2cccc(-c3ccncc3)c2)o1` (centres unmarked) [compound 148], for which the negative-log IC50 (pIC50) was 4.69.
On the same count and under the same terms, the same measure for `Cc1cnc(C(CC(=O)O)c2cc(F)cc(-c3ccccc3F)c2)s1` (centres unmarked) [compound 122]: 6.11; for `Cc1ccc(-c2cc(F)cc(C(CC(=O)O)c3ncco3)c2)c(F)c1` (centres unmarked) [compound 125]: 5.94; for `O=C(O)CC(c1cc(F)cc(-c2cccc(F)c2F)c1)c1ncco1` (centres unmarked) [compound 129]: 5.84.
For `CC(=O)c1ccccc1-c1cc(F)cc(C(CC(=O)O)c2ncco2)c1` (centres unmarked) [compound 136], the pIC50 was 5.69.
Take `O=C(O)CC(c1cc(F)cc(-c2cc(F)ccc2F)c1)c1ncco1` (centres unmarked) [compound 130]: the pIC50 was 5.83.
Still for that read-out and setting: the same measure for `CC(=O)c1ccccc1-c1cc(F)cc(C(CC(=O)O)c2ncc(C)s2)c1` (centres unmarked) [compound 121]: 6.15; for `Cc1cnc(C(CC(=O)O)c2cc(F)cc(-c3ccccc3C(=O)N(C)C)c2)s1` (centres unmarked) [compound 132]: 5.77; for `Cc1cnc(C(CC(=O)O)c2cc(F)cc(-c3cccc(OC(F)(F)F)c3)c2)s1` (centres unmarked) [compound 124]: 6.01.
In the case of `CC(=O)c1ccccc1-c1cccc(C(CC(=O)O)c2nnc(C)o2)c1` (centres unmarked) [compound 145], the negative-log IC50 (pIC50) is 5.76.
In the case of `O=C(O)CC(c1cc(F)cc(-c2ccccc2F)c1)c1ncco1` (centres unmarked) [compound 133], the negative logarithm of the IC50 (pIC50) is 5.76.
As to `Cc1nnc(C(CC(=O)O)c2cccc(-c3ccccc3C#N)c2)o1` (centres unmarked) [compound 146], the pIC50 is 5.32.
On the same count and under the same terms, the same measure for `Cc1cccc(-c2cc(F)cc(C(CC(=O)O)c3ncco3)c2)c1F` (centres unmarked) [compound 119]: 6.31; for `Cc1cnc(C(CC(=O)O)c2cc(F)cc(-c3cccnc3)c2)s1` (centres unmarked) [compound 128]: 5.88.

Staying with this test, now noted: read-out: CATHA IC50.
As for `CC(=O)c1ccccc1-c1cccc(C(CC(=O)O)c2ncc(C)s2)c1` (centres unmarked) [compound 55], the negative-log IC50 (pIC50) is 5.64.
The same measure, in the same setting: the same measure for `COc1ccc(C=O)c(-c2cccc(C(CC(=O)O)c3nccs3)c2)c1` (centres unmarked) [compound 37]: 5.49; for `COc1cccc(-c2cccc(C(CC(=O)O)c3nccs3)c2)c1F` (centres unmarked) [compound 17]: 6.23; for `COc1ccc(-c2ccc(F)cc2)cc1C(CC(=O)O)c1ncc(C)s1` (centres unmarked) [compound 84]: 5.36.
Same read-out and setting: the same measure for `COc1ccc(-c2cccc(C)c2)cc1C(CC(=O)O)c1ncc(C)s1` (centres unmarked) [compound 90]: 5.15; for `N#CCOc1ccc(-c2cccc(C(CC(=O)O)c3nccs3)c2)cc1` (centres unmarked) [compound 32]: 5.62.
As for `COc1ccc(-c2ccc(OC)c(C(CC(=O)O)c3ncc(C)s3)c2)c(F)c1` (centres unmarked) [compound 77], the negative logarithm of the IC50 (pIC50) was 5.49.
For `O=C(O)CC(c1cccc(-c2cccc(OCC(F)(F)F)c2)c1)c1nccs1` (centres unmarked) [compound 34], the negative logarithm of the IC50 (pIC50) is 5.61.
For the molecule `O=C(O)CC(c1cccc(-c2ccccc2Cl)c1)c1nccs1` (centres unmarked) [compound 8], the negative-log IC50 (pIC50) is 5.69.
As to `COc1cc(F)c(-c2cccc(C(CC(=O)O)c3ncc(C)s3)c2)cc1F` (centres unmarked) [compound 52], the negative-log IC50 (pIC50) was 6.33.
Turning to `COc1ccc(-c2ccc(C#N)cc2)cc1C(CC(=O)O)c1ncc(C)s1` (centres unmarked) [compound 93], the pIC50 is 5.06.
Turning to `Cc1cnc(C(CC(=O)O)c2cccc(-c3ccccc3F)c2)s1` (centres unmarked) [compound 53], the pIC50 was 6.20.
Turning to `COc1cc(-c2cccc(C(CC(=O)O)c3nccs3)c2)ccc1O` (centres unmarked) [compound 29], the pIC50 was 5.64.
On the same count and under the same terms, the same measure for `COc1ccc(-c2cccc(OC(F)(F)F)c2)cc1C(CC(=O)O)c1ncc(C)s1` (centres unmarked) [compound 96]: 4.74.
For `CCCOc1ccc(F)c(-c2cccc(C(CC(=O)O)c3nccs3)c2)c1` (centres unmarked) [compound 20], the negative-log IC50 (pIC50) is 5.95.
For the molecule `O=C(O)CC(c1cccc(-c2ccc(Cl)c(OCc3ccccc3)c2)c1)c1nccs1` (centres unmarked) [compound 38], the pIC50 is 5.10.
Consider `COc1ccc(-c2cccc(C)c2F)cc1C(CC(=O)O)c1ncc(C)s1` (centres unmarked) [compound 73], for which the pIC50 is 5.62.
The same measure, in the same setting: the same measure for `O=C(O)CC(c1cccc(-c2ccc3c(c2)OCCO3)c1)c1nccs1` (centres unmarked) [compound 19]: 6.01.
For `Cc1ccc(F)c(-c2cc(Cl)cc(C(CC(=O)O)c3ncc(C)s3)c2)c1` (centres unmarked) [compound 105], the pIC50 is 6.63.
Consider `Cc1cnc(C(CC(=O)O)c2cccc(-c3cc(Cl)ccc3F)c2)s1` (centres unmarked) [compound 50], for which the pIC50 is 6.64.
Consider `Cc1cnc(C(CC(=O)O)c2cccc(-c3ccccc3C(N)=O)c2)s1` (centres unmarked) [compound 56], for which the negative-log IC50 (pIC50) was 5.27.
On to `O=C(O)CC(c1cccc(-c2cccnc2)c1)c1nccs1` (centres unmarked) [compound 44], for which the negative logarithm of the IC50 (pIC50) is 4.67.
On to `COc1ccc(-c2cc(F)ccc2F)cc1C(CC(=O)O)c1ncc(C)s1` (centres unmarked) [compound 63], for which the negative logarithm of the IC50 (pIC50) was 6.01.
With `COc1ccc(-c2cccc(C)c2C)cc1C(CC(=O)O)c1ncc(C)s1` (centres unmarked) [compound 71], the pIC50 was 5.64.
With `O=C(O)CC(c1cccc(-c2ccncc2F)c1)c1nccs1` (centres unmarked) [compound 47], the pIC50 is 4.61.
Turning to `COc1ccc(-c2cccc(Cl)c2F)cc1C(CC(=O)O)c1ncc(C)s1` (centres unmarked) [compound 61], the pIC50 was 6.02.
The same measure, in the same setting: the same measure for `O=C(O)CC(c1cccc(-c2ccc(Cl)cc2)c1)c1nccs1` (centres unmarked) [compound 7]: 5.76; for `COc1ccc(-c2ccccc2C)cc1C(CC(=O)O)c1ncc(C)s1` (centres unmarked) [compound 78]: 5.48; for `Cc1cnc(C(CC(=O)O)c2cc(Cl)cc(-c3ccccc3C#N)c2)s1` (centres unmarked) [compound 114]: 6.25.
Still for that read-out and setting: the same measure for `CCCOc1cccc(-c2cccc(C(CC(=O)O)c3nccs3)c2)c1` (centres unmarked) [compound 26]: 5.78.
Same read-out and setting: the same measure for `COc1ccc(-c2ccccc2C(N)=O)cc1C(CC(=O)O)c1ncc(C)s1` (centres unmarked) [compound 97]: 4.71.
As to `O=C(O)CC(c1cccc(-c2ccnc(F)c2)c1)c1nccs1` (centres unmarked) [compound 46], the pIC50 is 4.63.
Turning to `COc1ccc(-c2cccc(F)c2Cl)cc1C(CC(=O)O)c1ncc(C)s1` (centres unmarked) [compound 82], the pIC50 is 5.40.
On to `COc1ccc(-c2ccc(C)cc2)cc1C(CC(=O)O)c1ncc(C)s1` (centres unmarked) [compound 68], for which the negative-log IC50 (pIC50) was 5.80.
Consider `CC(C)(C)c1cccc(-c2cccc(C(CC(=O)O)c3nccs3)c2)c1` (centres unmarked) [compound 1], for which the negative-log IC50 (pIC50) is 5.72.
On to `COc1ccc(-c2ccc(OC(F)(F)F)cc2)cc1C(CC(=O)O)c1ncc(C)s1` (centres unmarked) [compound 89], for which the pIC50 was 5.17.
Still for that read-out and setting: the same measure for `CC(C)COc1ccc(-c2cccc(C(CC(=O)O)c3nccs3)c2)cc1` (centres unmarked) [compound 36]: 5.55.
As to `Cc1cnc(C(CC(=O)O)c2cccc(-c3cncc(C(=O)N4CCOCC4)c3)c2)s1` (centres unmarked) [compound 59], the pIC50 was 4.87.
`N#CCOc1cccc(-c2cccc(C(CC(=O)O)c3nccs3)c2)c1` (centres unmarked) [compound 27]: the pIC50 was 5.71.
As to `O=C(O)CC(c1cccc(-c2cccc(Cl)c2)c1)c1nccs1` (centres unmarked) [compound 5], the pIC50 is 6.01.
In the case of `Cc1nc(C(CC(=O)O)c2cccc(Br)c2)sc1C` (centres unmarked) [compound 2], the negative logarithm of the IC50 (pIC50) was 5.11.
As to `CCOc1cccc(-c2cccc(C(CC(=O)O)c3nccs3)c2)c1` (centres unmarked) [compound 24], the negative-log IC50 (pIC50) is 5.82.
Turning to `Cc1cc(-c2cccc(C(CC(=O)O)c3nccs3)c2)n(C)n1` (centres unmarked) [compound 40], the negative-log IC50 (pIC50) was 5.02.
`Cc1cnc(C(CC(=O)O)c2cc(Cl)cc(-c3ccccc3C(N)=O)c2)s1` (centres unmarked) [compound 110]: the pIC50 was 6.39.
Take `COc1ccc(-c2cccc(C(F)(F)F)c2)cc1C(CC(=O)O)c1ncc(C)s1` (centres unmarked) [compound 91]: the pIC50 is 5.11.
With `COc1ccc(-c2ccc(F)cc2F)cc1C(CC(=O)O)c1ncc(C)s1` (centres unmarked) [compound 74], the pIC50 is 5.58.
As to `Cc1cnc(C(CC(=O)O)c2cc(Cl)cc(-c3cccc(F)c3F)c2)s1` (centres unmarked) [compound 109], the negative-log IC50 (pIC50) is 6.45.
Consider `COc1ccc(-c2cccc(F)c2F)cc1C(CC(=O)O)c1ncc(C)s1` (centres unmarked) [compound 69], for which the pIC50 was 5.75.
As to `COc1ccc(-c2cccc(Cl)c2)cc1C(CC(=O)O)c1ncc(C)s1` (centres unmarked) [compound 81], the pIC50 is 5.43.
For `Cc1c(Cl)cccc1-c1cccc(C(CC(=O)O)c2nccs2)c1` (centres unmarked) [compound 6], the pIC50 was 5.78.
Take `Cc1cnc(C(CC(=O)O)c2cc(Cl)cc(-c3cccc(OC(F)(F)F)c3)c2)s1` (centres unmarked) [compound 111]: the pIC50 was 6.39.
On to `COc1ccc(-c2cc(F)ccc2C)cc1C(CC(=O)O)c1ncc(C)s1` (centres unmarked) [compound 64], for which the pIC50 was 5.92.
On the same count and under the same terms, the same measure for `Cc1cnc(C(CC(=O)O)c2cc(Cl)cc(-c3cccc(Cl)c3F)c2)s1` (centres unmarked) [compound 103]: 6.71; for `COc1cccc(-c2cccc(C(CC(=O)O)c3ncc(C)s3)c2)c1F` (centres unmarked) [compound 51]: 6.40.
